Test results: patent US20220023358A1, “COMBINATION THERAPIES OF MICROORGANISMS AND IMMUNE MODULATORS FOR USE IN TREATING CANCER” (Synlogic Operating Company, Inc., priority 2018, published 2022)

Columns and labels:
[1] = system: RAW 264.7 macrophages or WT BMDCs; assay: Cytokine mRNA in RAW 264.7 macrophages or WT BMDCs, with or without Cytochalasin D; format: cell-based, murine
Method: (§1) In indicated groups cells were pre-treated with for lh with Cytochalasin D (10 μM). Macrophages or BMDCs incubated in media alone served as a negative control. Cells were analyzed for the upregulation of Ifnbl and 116 mRNA (FIGS. 7D-7G). WT, TLR4^−/− and STING-^−/− BMDCs were treated with Control EcN (MOI: 25), pre-induced SYN1891 (MOI: 25), LPS (100 ng/mL), or smSTING agonist (5 μg/mL) for 4 hours. Cells were analyzed for the upregulation of Ifnb1, Il6 and Il12a mRNA (FIGS. 7H-7J). Data are representative of two or more independent experiments with mean and standard deviation shown. **P<0.005; ***P<0.0005; ****P<0.00001; two-tailed unpaired Student's t-test comparing the indicated groups.
To evaluate the mechanism of action of SYNB1891 in the induction of type I IFNs, bacterial phagocytosis was blocked using cytochalasin D. Cytochalasin D inhibits actin polymerization and prevents phagocytosis, yet it has minimal effect on endocytosis/pinocytosis of soluble small molecules. […] Therefore, phagocytosis of SYNB1891 is required for intracellular CDA release and STING activation in target cells, providing a natural mechanism for preferential activation of APCs in the tumor.

[2] = system: WT, TLR4−/− and STING−/− BMDCs; assay: Cytokine mRNA in WT, TLR4−/− and STING−/− BMDCs; format: cell-based, murine; details: 4 hours
Method: as §1
LPS is an integral component of the outer membrane of Gram-negative bacteria and as such LPS recognition by TLR4 plays an important role in the induction of immune responses by these microbes.

NK cells = details: first-in-human clinical trial; cited from earlier work
[3] = system: Hyaluronan or Hyaluronic acid (HA); details: mouse PDA tumors; cited from earlier work

Molecule: Nc1ncnc2c1ncn2[C@@H]1O[C@@H]2COP(O)(=S)O[C@@H]3C(O)[C@@H](COP(O)(=S)O[C@H]2[C@H]1O)O[C@H]3n1cnc2c(N)ncnc21 (stereo partly drawn) [smSTING agonist, 2′3′-c-di-AM(PS)2 (Rp,Rp)]
- Cytokines expressed ([1]; 4 hours, 5 μg/mL): led only to IFNβ1 expression
- IFNβ1 induction, effect of Cytochalasin D ([1]; Cytochalasin D pre-treatment): did not affect
- IFNβ1 expression in STING−/− BMDCs ([2]; STING−/− BMDCs): completely abrogated
- IFNβ1 expression in TLR4−/− BMDCs ([2]; TLR4−/− BMDCs): preserved

Molecule: recombinant human IL-15: recombinant human IL-15 cytokine
- Expansion of NK cells (NK cells): 10 fold

B1: PEGPH20: PEGylated form of rHuPH20, a hyaluronidase (protein, UniProt P38567 36-490, looked up)
Hyaluronidase PH-20: LNFRAPPVIPNVPFLWAWNAPSEFCLGKFDEPLDMSLFSFIGSPRINATGQGVTIFYVDRLGYYPYIDSITGVTVNGGIPQKISLQDHLDKAKKDITFYMPVDNLGMAVIDWEEWRPTWARNWKPKDVYKNRSIELVQQQNVQLSLTEATEKAKQEFEKAGKDFLVETIKLGKLLRPNHLWGYYLFPDCYNHHYKKPGYNGSCFNVEIKRNDDLSWLWNESTALYPSIYLNTQQSPVAATLYVRNRVREAIRVSKIPDAKSPLPVFAYTRIVFTDQVLKFLSQDELVYTFGETVALGASGIVIWGTLSIMRSMKSCLLLDNYMETILNPYIINVTLAAKMCSQVLCQEQGVCIRKNWNSSDYLHLNPDNFAIQLEKGGKFTVRGKPTLEDLEQFSEKFYCSCYSTLSCKEKADVKDTDAVDVCIADGVCIDAFLKPPMETEEPQIFYNASPSTLS
modifications: PEG
notes: PEGylated form of rHuPH20, a hyaluronidase
- Interstitial fluid pressure after treatment [3]: 20-30 mmHg
